Assay results from PubChem BioAssay (NCI).
Values joined by “and” are separate entries in the source; they are usually repeats but may differ in a detail not shown here. Identical values can stand only once.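 Results reflect a 48-hour exposure of cells in 96-well plates to compound at five concentrations. GI50: concentration for 50% inhibition of growth. At the TGI there is no net growth.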

Columns and labels:
Assay in all cases: NCI tumour cell line growth inhibition, 48 h
MOLT-4 leukemia = system: MOLT-4 leukemia
OVCAR-5 ovarian = system: OVCAR-5 ovarian
UACC-62 melanoma = system: UACC-62 melanoma
CCRF-CEM leukemia = system: CCRF-CEM leukemia
OVCAR-8 ovarian = system: OVCAR-8 ovarian
SNB-75 CNS = system: SNB-75 CNS
HT29 colon = system: HT29 colon
HL-60(TB) leukemia = system: HL-60(TB) leukemia
MCF7 breast = system: MCF7 breast
SK-MEL-2 melanoma = system: SK-MEL-2 melanoma

SMILES | GI50 (MOLT-4 leukemia) | TGI (MOLT-4 leukemia) | GI50 (OVCAR-5 ovarian) | TGI (OVCAR-5 ovarian) | GI50 (UACC-62 melanoma) | TGI (UACC-62 melanoma) | GI50 (CCRF-CEM leukemia) | TGI (CCRF-CEM leukemia) | GI50 (OVCAR-8 ovarian) | TGI (OVCAR-8 ovarian) | GI50 (SNB-75 CNS) | TGI (SNB-75 CNS) | GI50 (HT29 colon) | TGI (HT29 colon) | GI50 (HL-60(TB) leukemia) | TGI (HL-60(TB) leukemia) | GI50 (MCF7 breast) | TGI (MCF7 breast) | GI50 (SK-MEL-2 melanoma) | TGI (SK-MEL-2 melanoma)
CNc1cc(-c2cccc(OC(F)(F)F)c2)nc2ccc(N3CCCC3)cc12 | 2.06 µM and 1.81 µM and 1.56 µM | 4.26 µM and 4.18 µM and 3.6 µM | 1.68 µM and 2.04 µM and 1.87 µM | 3.18 µM and 3.73 µM and 3.34 µM | 1.75 µM and 1.76 µM and 1.7 µM | 3.36 µM and 3.16 µM and 3.18 µM | 2.02 µM and 1.96 µM and 1.76 µM | 4.52 µM and 4.49 µM and 4.01 µM | 1.8 µM and 1.81 µM and 1.82 µM | 3.5 µM and 3.39 µM and 3.55 µM | 1.7 µM and 1.48 µM | 3.12 µM and 2.93 µM | 1.31 µM and 1.61 µM and 1.54 µM | 2.69 µM and 3.06 µM and 3.01 µM | 2.12 µM and 1.96 µM and 1.95 µM | 4.65 µM and 4.94 µM and 4.28 µM | 1.22 µM and 1.65 µM and 1.75 µM | 2.88 µM and 3.32 µM and 3.62 µM | 1.72 µM and 1.69 µM and 1.77 µM | 3.19 µM and 3.17 µM and 3.23 µM
COc1ccc(-c2[nH]ncc2Nc2cc(OC)c(OC)c(OC)c2)cc1 | 2.12 µM | 63.7 µM | 5.26 µM | > 100 µM | 0.704 µM | 69.8 µM | 1.5 µM | 19.4 µM | 6.36 µM | > 100 µM | 1.52 µM | > 100 µM | 0.482 µM | > 100 µM | 0.304 µM | 1.57 µM | 0.736 µM | > 100 µM | 10.3 µM | > 100 µM
COc1cc(C(=O)n2nc(N)c3c(C)cc(C)nc32)cc(OC)c1OC | 7.26 µM | > 100 µM | > 100 µM | > 100 µM | 54.1 µM | > 100 µM | > 89.2 µM | > 100 µM | > 100 µM | > 100 µM | > 38.3 µM | > 100 µM | 3.46 µM | > 100 µM | 4.49 µM | > 100 µM | 10.2 µM | > 100 µM | > 64.1 µM | > 100 µM
CSc1nc2c(c(=O)n1C)C(c1ccccc1)C1=C(N2)/C(=C/c2ccccc2)CCC1 (stereo not drawn) | 4.9 µM | > 100 µM | 71.7 µM | > 100 µM | 7.95 µM | > 100 µM | 4.62 µM | > 100 µM | 3.97 µM | > 100 µM | 11.3 µM | 29.7 µM | 3.58 µM | 71 µM | 0.721 µM | 48.4 µM | 7.72 µM | > 100 µM | 9.48 µM | 42.6 µM
CNC(=O)c1cc(Oc2ccc(NC(=O)Nc3cc(C(C)(C)C)nn3-c3ccc4ncccc4c3)c(F)c2)ccn1 | 1.58 µM and 2.08 µM | 8.06 µM and 5.85 µM | 2.1 µM and 3.34 µM |  | 0.0743 µM and 0.0624 µM | 1.62 µM and 1.18 µM | 2.35 µM and 2.57 µM | 8.36 µM and > 31.6 µM | 2.24 µM and 1.99 µM | 7.82 µM and 6.84 µM | 1.09 µM and 1.01 µM | 2.7 µM and 3.01 µM | 0.52 µM and 0.505 µM | 3.65 µM and 5.07 µM | 3.33 µM and 2.53 µM | 6.57 µM and 5.8 µM | 1.15 µM and 1.05 µM | 9.13 µM and > 53 µM | 1.81 µM and 2.55 µM | 4.34 µM and 5.45 µM
O=C1/C(=C/c2ccc([N+](=O)[O-])o2)Oc2ccc(Cl)cc21 | 2.05 µM | 6.73 µM | 2.63 µM | 7.5 µM | 1.58 µM | 3.41 µM | 0.429 µM | 2.24 µM | 2.06 µM | > 22.1 µM | 1.6 µM | 5.44 µM | 1.87 µM | 3.98 µM | 2.08 µM | 18.3 µM | 1.42 µM | 3.92 µM | 1.93 µM | 3.83 µM
Cc1cc(N(CCNc2ccnc3cc(Cl)ccc23)Cc2ccc3c(c2)OCO3)nc(N2CCCC2)n1 | 1.86 µM | 7.03 µM | 1.87 µM | 4.95 µM | 1.88 µM | 3.49 µM | 1.57 µM | 9.09 µM | 1.91 µM | 5.01 µM | 1.34 µM | 3 µM | 0.706 µM | 3.66 µM | 1.95 µM | 4.06 µM | 1.49 µM | 4.19 µM | 1.82 µM | 3.62 µM
Cc1cc(N2CCOCC2)nc(NCc2cc(Nc3ccnc4cc(Cl)ccc34)ccc2F)n1 | 1.4 µM | 3.66 µM | 1.62 µM | 3.16 µM | 1.75 µM | 3.35 µM | 1.46 µM | 4.79 µM | 1.86 µM | 3.58 µM | 1.19 µM | 2.64 µM | 0.834 µM | 2.24 µM | 2.31 µM | 4.82 µM | 0.348 µM | 1.5 µM | 1.95 µM | 3.61 µM
COC(=O)CC1=C(C)/C(=C/c2[nH]c(-c3ccc[nH]3)cc2OC)N=C1C | 0.17 µM | 3.48 µM | 0.195 µM | 6.06 µM | 0.216 µM | 0.56 µM | 0.0768 µM | 5.34 µM | 0.236 µM | 1.02 µM | 0.137 µM | 2.16 µM | 0.0375 µM | 1.19 µM | 0.154 µM | 0.882 µM | 0.0828 µM | 0.733 µM | 0.149 µM | 0.354 µM
NS(=O)(=O)c1ccc(N=Nc2c[nH]c(=O)c(O)c2)cc1 |  | > 100 µM |  | > 100 µM |  | > 100 µM |  | 44.1 µM |  | > 100 µM |  | > 100 µM |  | > 100 µM |  | > 100 µM |  | > 100 µM |  | > 100 µM
CCN1C(=O)N(CC)C2C1N=C(SC)N2/N=C/C=C/c1ccccc1OC (stereo not drawn) | 0.457 µM | > 46.1 µM | 0.63 µM | > 54.4 µM | 0.492 µM | > 40.4 µM | 0.379 µM | > 48.2 µM | 0.438 µM | > 45 µM | 0.363 µM | 52.5 µM | 0.357 µM |  | 0.289 µM | 1.09 µM | 0.421 µM | > 39.4 µM | 1.2 µM | > 39.3 µM
N#Cc1c(N)nc(N2CCOCC2)c(C#N)c1-c1c(Cl)cccc1Cl | 5.1 µM | 86.5 µM | 6.27 µM | 35.3 µM | 3.87 µM | 19.7 µM | 4.91 µM | 46.6 µM | 14.2 µM | 63.2 µM | 1.75 µM | 9.66 µM | 3.33 µM | 17.4 µM | 4.75 µM | 20.9 µM | 2.92 µM | 16.4 µM | 6.31 µM | 93.2 µM
FC(F)(F)c1cccc(-c2[nH]ncc2-c2nnnn2-c2ccccc2)c1 | 4.79 µM | 28.8 µM | 10.6 µM | 31.2 µM | 4.22 µM | 15.8 µM | 5.3 µM | 22.9 µM | 7.77 µM | 90.2 µM | 4.81 µM | 20.1 µM | 2.99 µM | 9.33 µM | 3.94 µM | 8.86 µM | 3.3 µM | 13.7 µM | 12.8 µM | 31 µM
